≈ marks a conversion by molar mass, not a printed value.
How the values were obtained:
DU-145 = details: exposure time period of 72; previous study; read-out: reported IC50 of DXT; cited from earlier work
[1] = cited from earlier work
[2] = deionized-water; cited from earlier work
MCF-10A = assay: MTS cell viability / cytotoxicity on normal MCF-10A cells; assay type: cell-based, human; details: 1% v/v

**Q.** Which IC50 (DU-145) does the source give for `CC(=O)O[C@@]12CO[C@@H]1C[C@H](O)[C@@]1(C)C(=O)[C@H](O)C3=C(C)[C@@H](OC(=O)[C@H](O)[C@@H](NC(=O)OC(C)(C)C)c4ccccc4)C[C@@](O)([C@@H](OC(=O)c4ccccc4)[C@H]21)C3(C)C` [native DXT, Docetaxel] here?
**A.** 8.2 nM

**Q.** What about the “log P” value [1] of the same compound?
**A.** 4.1

**Q.** What about the solubility [2] of the same compound?
**A.** 11.75 µg/mL (≈ 14.5 µM)

**Q.** Which “cytotoxicity of positive control” value (MCF-10A) does the source give for Triton X here?
**A.** strongly cytotoxic

From patent US11529328B2, “Formulations for pharmaceutical agents” (The Curators of the University of Missouri, priority 2019, dated 2022)
